The values that follow are results of earlier work, collected in publication PMC4855509 (Photochemistry and photobiology, 2014).

On to carboxy-tetramethylrhodamine [TMR], for which the “triplet state quantum yield” value was 0.001–0.003.
